Consider one molecule from ChEMBL document CHEMBL5584247, “Stereochemical properties of quazepam and its affinity for the GABAA receptor” (Bioorg Med Chem Lett, 2024).

Experiment [1] deals with T1, GABA-A receptor; anion channel (Homo sapiens) (UniProt P14867+P47870+P18507+P28472+P48169+Q99928+Q9UN88+P34903+O00591+O14764+Q8N1C3+P18505+P78334+P47869+P31644+Q16445). The experiment in a line: Inhibition of GABAA receptor (unknown origin) at 50 uM relative to control. It is filed as protein-complex assay.
Experiment [2] concerns the target T1, GABA-A receptor; anion channel (Homo sapiens). The experiment is described as follows: Inhibition of GABAA receptor (unknown origin) at 10 uM relative to control. Format: protein-complex assay.

“And” between values parts separate entries of the source, which are not always exact repeats. Identical values can stand only once.

Consider `Cc1cc(Cl)cc2c1N(CC(F)(F)F)C(=S)CN=C2c1ccccc1F`, for which the inhibition in experiment [1] is 35% and 31%; in experiment [1] (INHIBITOR), 53%; in experiment [2] it was 24% and 17% and 26%.
